Assay [1] has as its system C6-Luc brain tumor. Put plainly: Near infra-red fluorescence whole body imaging of IRDye-conjugated D-peptides in brain tumor-bearing mice. The class given is in vivo, mouse. Particulars: IRDye 800CW conjugates, tail vein, nude mice with C6-Luc brain tumors, IVIS imaging 15 min to 144 h.
Assay [2] has as its target T1, synthetic human MC16 peptide (ANXA1 N-terminus) (Homo sapiens, UniProt P04083).
T1 construct: chemically synthesized ANXA1 N-terminus (1–15 residues plus a cysteine at 16); purchased Bio-Synthesis (Lewisville, TX); host or cells: chemical synthesis
As to the kind of experiment: Plate binding assay of biotinylated dTIT7 to MC16-coated wells (streptavidin-peroxidase, A450). Particulars: N-terminal biotinylated dTIT7 added to MC16-coated plastic wells, peroxidase-streptavidin colour reaction, read-out: Kd of dTIT7 bound to WT MC16. Here is the method: To assess dTIT7 binding, wells of Sulfhydryl-BIND Surface Maleimide plates (Corning) were coated 20 hours with wild type (WT) and mutant L-MC16 in water at 4°C. After washing with PBS containing 0.02% Tween 20 (PBST), wells were blocked 1 hour with 10% superblock (Thermo) in PBST at room temperature. Biotinylated dTIT7 (10 μg dissolved in 10% superblock in PBST (1 mL) prepared as above was added to each well at 100 μl/well and incubated 30 min at room temperature for. After three PBST washes, 100 μl streptavidin-peroxidase (0.2 μg/ml) in 10% superblock in PBST containing 2% bovine serum albumin was added to each well and incubated 30 min. After three PBST washes, 100 μL of the peroxidase substrate one-step-TMB (Thermo) was added and incubated until the color developed. The reaction was stopped by adding 100 μl 2N sulfuric acid, and absorbance at 450 nm monitored using an ELISA plate reader. […]
Fig 2 Binding of dTIT7 to an ANXA1 N-terminal domain peptide or to full-length ANXA1 protein. […] In A and B, biotinylated dTIT7 peptide (1 μg/mL) was added to each MC16-coated plastic well and binding of peptide to MC16 was detected by a peroxidase-conjugated streptavidin and peroxidase color reaction. […]

Assay [3] concerns the target T2, recombinant full-length ANXA1 (Homo sapiens, UniProt P04083).
T2 construct: Recombinant, full-length ANXA1 was expressed using the baculovirus expression system; honeybee melittin signal peptide (N, cleaved yes); His8-tag (N, cleaved yes); made in house; host or cells: Sf9 insect cells (baculovirus), secreted
T2 sequence (P04083 1-346): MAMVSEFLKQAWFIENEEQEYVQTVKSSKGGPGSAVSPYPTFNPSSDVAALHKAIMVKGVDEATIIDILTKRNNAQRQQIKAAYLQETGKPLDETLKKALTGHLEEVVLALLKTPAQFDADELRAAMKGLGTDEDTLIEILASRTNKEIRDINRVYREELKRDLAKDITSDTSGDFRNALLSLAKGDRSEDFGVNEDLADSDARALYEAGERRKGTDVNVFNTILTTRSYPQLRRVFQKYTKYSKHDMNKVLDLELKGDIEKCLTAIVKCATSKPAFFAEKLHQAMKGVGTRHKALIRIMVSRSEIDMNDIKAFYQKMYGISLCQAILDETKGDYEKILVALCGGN
Also on record: method as in PMID 32921792. Particulars: IF7 with ANXA1; cited from earlier work.

For assay [4], the target named is T3, Annexin A1 (Homo sapiens, UniProt P04083).
T3 chain: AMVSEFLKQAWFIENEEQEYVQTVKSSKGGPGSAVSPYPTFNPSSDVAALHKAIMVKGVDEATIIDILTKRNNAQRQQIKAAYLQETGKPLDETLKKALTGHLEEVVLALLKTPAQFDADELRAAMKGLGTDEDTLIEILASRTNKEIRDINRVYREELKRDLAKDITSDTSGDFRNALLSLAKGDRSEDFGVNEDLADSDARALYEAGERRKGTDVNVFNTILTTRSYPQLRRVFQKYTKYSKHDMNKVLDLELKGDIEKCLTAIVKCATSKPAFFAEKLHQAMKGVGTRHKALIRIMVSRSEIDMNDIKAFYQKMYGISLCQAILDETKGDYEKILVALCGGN
Put plainly: QCM.

The target of assay [5] is T4, ANXA1 N-terminal peptide L-MC16 (Homo sapiens).
T4 chain: MAMVSEFLKQAWFIEC
Put plainly: plate binding assay (ELISA). For orientation: ELISA stands for enzyme-linked immunosorbent assay.

For orientation: Kd means the free concentration of one partner at which half of the binding sites on the other are occupied at equilibrium, for simple one-to-one binding.

Values joined by “and” are separate entries in the source; they are usually repeats but may differ in a detail not shown here. Equal values may be shown once. Non-standard residues stand in square brackets, D forms with d. Residues, ends and D or L forms follow the SMILES beside them. No end group written: not given here. *: point of attachment. Biotin = O=C1N[C@H]2[C@H](CS[C@H]2CCCCC(=O)*)N1

As to `CC(C)C[C@@H](N)C(=O)N[C@H](CC(C)C)C(=O)N[C@H](CO)C(=O)N[C@H](Cc1c[nH]c2ccccc12)C(=O)N1CCC[C@@H]1C(=O)N[C@H](CO)C(=O)N[C@H](C)C(=O)O` [dLLS7] (H-[dL][dL][dS][dW][dP][dS][dA]-OH; N-terminus and C-terminus assumed), the “Localization of near infra-red fluorescence after intravenous injection” value in assay [1] is “signals in brain, kidney and other organs”. Same read-out and setting: the value for `CSCC[C@@H](N)C(=O)N1CCC[C@@H]1C(=O)N[C@@H](C(=O)N[C@H](CC(C)C)C(=O)N[C@@H](C(=O)N[C@H](Cc1ccccc1)C(=O)N[C@H](CCCNC(=N)N)C(=O)O)[C@H](C)O)[C@H](C)O` [dMPT7] (H-[dM][dP][dT][dL][dT][dF][dR]-OH; N-terminus and C-terminus assumed) was “signals in brain, kidney and other organs”. On to `CC(C)C[C@@H](NC(=O)[C@@H](CC(C)C)NC(=O)[C@@H](CO)NC(=O)[C@H](NC(=O)[C@H]1CCCN1C(=O)[C@H](N)CO)[C@H](C)O)C(=O)N[C@H](Cc1ccccc1)C(=O)O` [dSPT7] (H-[dS][dP][dT][dS][dL][dL][dF]-OH; N-terminus and C-terminus assumed), for which, in assay [1], the “Localization of near infra-red fluorescence after intravenous injection” value is “signals in brain, kidney and other organs”.

On to `CC[C@@H](C)[C@@H](NC(=O)[C@H](N)[C@H](C)O)C(=O)N[C@@H](C(=O)N[C@H](Cc1c[nH]c2ccccc12)C(=O)N1CCC[C@@H]1C(=O)N[C@@H](C(=O)N[C@H](CCSC)C(=O)O)[C@H](C)O)[C@H](C)O` [dTIT7], for which, in assay [2], the Kd is 8.5 nM and 8.56 nM. With “IFLLWQR (linear all-L peptide; any N-terminal Cys/linker or conjugate left out) [IF7]”, in assay [3], the Kd is 63.8 nM.

B1: dTIT7 (peptide)
chain: [dT][dI][dT][dW][dP][dT][dM]
B1 showed a Kd in assay [4] of 46.6 nM.

B2: dTIT7 (peptide)
chain: Biotin-[dT][dI][dT][dW][dP][dT][dM]
In the case of B2, the affinity in assay [5], expressed as Kd, was 8.5 nM.

B3: dLRF7 (peptide)
chain: [dL][dR][dF][dP][dT][dV][dL]
Molecule B3 registered a Kd in assay [4] of 31.2 nM.
